Assay [1] concerns the target T1, cDNA-expressed human hepatic CYP3A4 (Homo sapiens, UniProt P08684).
T1 construct: purchased BD Gentest 456202
Description: P450 CYP3A4 inhibitory activity screening (BFC substrate, fluorescence). The format is biochemical.

The test system of assay [2] is MV-4-11 cells. Description: Cell growth inhibition assay on AML cancer cells (CellTiter 96). It is filed as cell-based. To be noted: Homo sapiens, MV4-11. How it is done: The lower GI50 value means the higher inhibition activity.
Cell Growth Inhibition Activity on AML Cancer Cells (Cell Growth Inhibition Assay)
Cell growth Inhibition assay was performed to investigate the rate of inhibition of cell proliferation by the test compounds. MV-4-11 (human, Acute Myeloid Leukemia cell line) cells were cultured in Iscove's modified Dulbecco's medium (IMDM) including 10% fetal bovine serum (FBS), 1× penicillin/streptomycin (10,000 units/ml Penicillin, […] Streptomycin in 0.85% NaCl). MV-4-11 cells were harvested with IMDM medium and 5×10^4 cells/well were transferred to each well of 96 well culture plates (Nunc, #167008). The test compounds were treated with the serial dilution and duplicated for each concentration. For the serial dilution, the test compounds were repeatedly diluted with the same volume of media onto 96-well assay block (costar, #3956). After the dilution, each compound was added to each well. The background absorbance was also measured during the test compounds treatment by adding the IMDM media in replacement of test compound to the negative control plate. The plates were incubated for 3 days (72 hours) at 37° C. in the humidified incubator containing 5% CO2. On the last day, 20 μL of CellTiter 96 Aqueous One Solution (Promega #G3581) was added to the culture in each well and the plates were incubated for a few hours at 37° C. in the humidified incubator containing 5% CO2. After the incubation, the absorbance of each cell was measured at 490 nm using an EnVision (Perkinelmer, USA). The GI50 values were calculated using a Prism 3.0 program.

The subject of assay [3] is Wnt signaling. The assay is described as follows: TopFlash reporter gene bioassay in SW480 cells. It is filed as cell-based. Conditions: Homo sapiens, SW480, TopFlash reporter gene assay, inhibition of Wnt signaling; read-out: RGA, IC50 (μM) TopF. For orientation: A reporter such as luciferase makes a cellular process visible.
Setting [4] is: cell growth inhibition on AML cancer cells, MV-4-11, read-out: MV-4-11, GI50.

Read-outs that look alike come from different tables or passages of the source.

T1 sequence (P08684 whole entry): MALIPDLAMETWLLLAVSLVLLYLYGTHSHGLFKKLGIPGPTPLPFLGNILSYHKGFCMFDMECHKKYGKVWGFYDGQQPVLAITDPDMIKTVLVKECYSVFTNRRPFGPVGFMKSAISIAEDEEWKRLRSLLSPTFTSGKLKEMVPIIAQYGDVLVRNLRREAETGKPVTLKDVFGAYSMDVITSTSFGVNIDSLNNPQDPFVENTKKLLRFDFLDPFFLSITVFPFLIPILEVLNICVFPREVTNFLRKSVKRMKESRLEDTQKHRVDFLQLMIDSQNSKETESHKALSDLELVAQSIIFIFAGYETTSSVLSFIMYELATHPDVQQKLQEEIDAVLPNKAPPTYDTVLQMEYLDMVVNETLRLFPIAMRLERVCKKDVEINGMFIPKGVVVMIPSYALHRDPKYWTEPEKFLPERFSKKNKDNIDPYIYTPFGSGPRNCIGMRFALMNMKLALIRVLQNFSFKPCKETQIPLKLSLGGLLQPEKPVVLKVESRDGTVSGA

As usually defined, the IC50 is the midpoint of a concentration-inhibition curve. Usually GI50 stands for the concentration that inhibits growth by half. Turning to `C=CCN1CC(=O)N2[C@@H](Cc3ccc(O)cc3)C(=O)N(Cc3cccc(C(=O)NCCOC)c3)C[C@@H]2N1C(=O)NCc1ccccc1` [Compound B], the IC50 in assay [1] (human CYP3A4 supersome, substrate BFC, 10 min incubation at 37° C., read-out: IC50 values of Compounds against CYP3A4 activity) turned out to be 34.6 µM. Moreover, the GI50 in assay [2] (MV-4-11 cells, 72 hours, read-out: GI50, cell growth inhibition of MV-4-11 AML cancer cells) amounted to 188 nM.

For `C=CCN1CC(=O)N2[C@@H](Cc3ccc(O)cc3)C(=O)N(Cc3cccc(NC(=O)OC)c3)C[C@@H]2N1C(=O)NCc1ccccc1` [compound 5], the IC50 in assay [3] stood at 0.16 ± 0.08 µM. The GI50 in assay [2] (setting [4]) was 50 nM.

As for `C=CCN1CC(=O)N2[C@@H](Cc3ccc(O)cc3)C(=O)N(Cc3cccc(C(=O)NCCOC)c3)C[C@@H]2N1C(=O)NCc1ccccc1` [compound 38], in assay [1] (P450 CYP3A4 inhibitory activity screening, fluorescent assay, read-out: CYP3A4 inhibition, IC50 (μM) fluorescent assay), the IC50 was 34.6 µM. The GI50 in assay [2] (setting [4]) amounted to 180 nM.

For `C=CCN1CC(=O)N2[C@@H](Cc3ccc(O)cc3)C(=O)N(Cc3cccc(C(=O)OCC)n3)C[C@@H]2N1C(=O)NCc1ccccc1` [compound 42], the GI50 in assay [2] (setting [4]) is 640 nM.

`C=CCN1CC(=O)N2[C@@H](Cc3ccc(O)cc3)C(=O)N(Cc3cccc(C(N)=O)n3)C[C@@H]2N1C(=O)NCc1ccccc1` [compound 43]: the GI50 in assay [2] (setting [4]) turned out to be 310 nM.

`C=CCN1CC(=O)N2[C@@H](Cc3ccc(O)cc3)C(=O)N(Cc3cccc(C(=O)NC)n3)C[C@@H]2N1C(=O)NCc1ccccc1` [compound 44]: the GI50 in assay [2] (setting [4]) came to 550 nM.

For `C=CCN1CC(=O)N2[C@@H](Cc3ccc(O)cc3)C(=O)N(Cc3cccc(C(=O)N(C)C)n3)C[C@@H]2N1C(=O)NCc1ccccc1` [compound 45], the GI50 in assay [2] (setting [4]) came to 2790 nM.

For the origin of these results see patent publication US8080657B2, “Compounds of reverse turn mimetics and the use thereof” (Choongwae Pharma Corporation, priority 2008, dated 2011).
